In ChEMBL document CHEMBL5050849 (2020):

These compounds were tested against Ubiquitin carboxyl-terminal hydrolase 9X (Homo sapiens, UniProt Q93008) (assay: Inhibition of USP9X (unknown origin) using Ubiquitin-Rhoadmine 110 as substrate preincubated for 30 mins followed by substrate addition and measured after 11 mins by fluorescence assay).
Assay type: single protein

Chain of Ubiquitin carboxyl-terminal hydrolase 9X (Q93008 whole entry): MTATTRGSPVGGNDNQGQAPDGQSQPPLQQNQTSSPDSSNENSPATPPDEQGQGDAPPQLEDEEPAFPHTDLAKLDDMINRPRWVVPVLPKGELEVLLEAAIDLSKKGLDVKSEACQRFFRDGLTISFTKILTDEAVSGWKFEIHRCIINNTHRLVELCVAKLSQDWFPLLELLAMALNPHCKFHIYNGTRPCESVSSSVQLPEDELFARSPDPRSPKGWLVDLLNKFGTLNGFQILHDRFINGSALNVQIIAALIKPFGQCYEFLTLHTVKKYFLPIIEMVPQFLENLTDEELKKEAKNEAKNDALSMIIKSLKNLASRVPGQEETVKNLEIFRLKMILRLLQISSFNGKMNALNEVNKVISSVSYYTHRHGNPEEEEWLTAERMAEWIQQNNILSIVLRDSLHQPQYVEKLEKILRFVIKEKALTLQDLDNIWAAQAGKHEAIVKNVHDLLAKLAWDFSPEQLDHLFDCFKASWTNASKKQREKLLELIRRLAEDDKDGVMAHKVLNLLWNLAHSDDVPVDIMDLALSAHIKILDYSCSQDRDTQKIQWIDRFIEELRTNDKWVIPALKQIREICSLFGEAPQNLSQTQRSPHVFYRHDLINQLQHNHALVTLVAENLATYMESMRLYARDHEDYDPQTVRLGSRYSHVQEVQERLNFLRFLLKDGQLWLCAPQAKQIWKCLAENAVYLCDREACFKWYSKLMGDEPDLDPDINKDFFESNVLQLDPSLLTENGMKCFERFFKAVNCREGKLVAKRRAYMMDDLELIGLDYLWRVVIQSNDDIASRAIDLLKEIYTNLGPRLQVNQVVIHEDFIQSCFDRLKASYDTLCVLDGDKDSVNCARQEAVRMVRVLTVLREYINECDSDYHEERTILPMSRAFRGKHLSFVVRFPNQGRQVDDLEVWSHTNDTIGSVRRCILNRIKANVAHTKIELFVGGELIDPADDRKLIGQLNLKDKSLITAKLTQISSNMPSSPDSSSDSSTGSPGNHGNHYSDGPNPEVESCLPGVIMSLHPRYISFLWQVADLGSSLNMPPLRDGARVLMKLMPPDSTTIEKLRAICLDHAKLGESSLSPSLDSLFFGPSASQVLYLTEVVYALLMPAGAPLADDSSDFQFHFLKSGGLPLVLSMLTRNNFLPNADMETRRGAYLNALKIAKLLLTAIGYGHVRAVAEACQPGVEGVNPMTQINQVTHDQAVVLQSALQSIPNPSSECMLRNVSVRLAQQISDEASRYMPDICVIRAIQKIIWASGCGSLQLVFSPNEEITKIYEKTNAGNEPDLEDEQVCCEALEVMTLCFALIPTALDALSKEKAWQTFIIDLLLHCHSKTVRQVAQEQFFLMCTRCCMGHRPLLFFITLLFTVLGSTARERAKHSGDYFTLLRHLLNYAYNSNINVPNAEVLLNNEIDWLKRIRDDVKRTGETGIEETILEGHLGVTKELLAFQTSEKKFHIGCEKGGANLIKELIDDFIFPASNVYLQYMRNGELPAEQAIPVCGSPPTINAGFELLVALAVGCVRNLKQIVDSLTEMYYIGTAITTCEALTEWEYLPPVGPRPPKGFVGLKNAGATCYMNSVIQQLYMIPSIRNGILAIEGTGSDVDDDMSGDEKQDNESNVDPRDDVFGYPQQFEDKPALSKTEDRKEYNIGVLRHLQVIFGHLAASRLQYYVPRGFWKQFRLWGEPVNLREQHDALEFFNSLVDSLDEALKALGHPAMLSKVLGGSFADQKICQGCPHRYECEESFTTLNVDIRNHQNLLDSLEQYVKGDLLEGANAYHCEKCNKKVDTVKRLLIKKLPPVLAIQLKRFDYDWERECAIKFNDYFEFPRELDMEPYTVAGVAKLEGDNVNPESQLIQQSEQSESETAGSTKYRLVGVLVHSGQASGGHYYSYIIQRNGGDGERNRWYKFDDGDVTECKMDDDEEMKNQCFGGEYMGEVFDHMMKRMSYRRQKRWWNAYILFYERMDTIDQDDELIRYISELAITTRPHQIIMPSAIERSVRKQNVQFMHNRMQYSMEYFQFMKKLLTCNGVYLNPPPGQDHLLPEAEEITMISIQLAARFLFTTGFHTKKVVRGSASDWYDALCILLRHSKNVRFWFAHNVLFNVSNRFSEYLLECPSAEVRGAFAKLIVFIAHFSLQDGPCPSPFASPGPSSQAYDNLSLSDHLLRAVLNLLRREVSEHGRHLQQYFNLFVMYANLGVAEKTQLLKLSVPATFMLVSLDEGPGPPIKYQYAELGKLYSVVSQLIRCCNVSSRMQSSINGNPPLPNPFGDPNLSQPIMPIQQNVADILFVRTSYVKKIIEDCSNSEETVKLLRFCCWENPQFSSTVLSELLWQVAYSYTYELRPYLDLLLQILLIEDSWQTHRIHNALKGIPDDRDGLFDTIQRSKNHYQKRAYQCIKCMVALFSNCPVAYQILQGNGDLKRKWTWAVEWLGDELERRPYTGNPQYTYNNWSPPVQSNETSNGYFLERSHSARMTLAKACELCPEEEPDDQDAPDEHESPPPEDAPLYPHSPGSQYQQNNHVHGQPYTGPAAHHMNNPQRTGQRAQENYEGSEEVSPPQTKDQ

IC50 [µM] | SMILES
> 25 | C[C@@H](c1ccccc1)N1Cc2cc(S(=O)(=O)c3ccc4c(c3)OCCO4)ccc2C1=O
> 25 | O=S(=O)(c1ccccc1)c1cc2c(cn1)CN(S(=O)(=O)c1ccc(-c3ncco3)cc1)C2
> 25 | COc1ccc(S(=O)(=O)N2CCc3nn(C(=O)[C@@H](O)c4ccccc4)cc3C2)cc1O
> 25 | O=S(=O)(c1ccc(-n2ccnc2)cc1)N1Cc2cnc(C(O)c3ccccc3)cc2C1 (centres undefined)
> 25 | OC(c1ccccc1)c1cc2c(cn1)CN(Cc1ccc3c(c1)OCCO3)C2 (centres undefined)
> 25 | O=S(=O)(C1CCN(c2nccs2)CC1)N1Cc2cnc(C(O)c3ccccc3)cc2C1 (centres undefined)
> 25 | O=S(=O)(C1CCN(c2ncco2)CC1)N1Cc2cnc(C(O)c3ccccc3)cc2C1 (centres undefined)
> 25 | O=C([C@@H](O)c1ccccc1)N1CCc2c(cnn2S(=O)(=O)c2ccc3c(c2)OCCO3)C1
> 25 | O=C(c1cccc(Cl)c1)c1cc2c(cn1)CN(S(=O)(=O)c1ccc3c(c1)OCCO3)C2
